Patent US10898483B2, “Methods for inducing an immune response by promoting premature termination codon read-through” (MOONSHOT PHARMA LLC, priority 2015, dated 2021)

Key:
MC38 tumor cells = assay: MC38 subcutaneous tumor model in C57BL/6 mice, tumor volume by caliper; type: in vivo; set-up: Percent inhibition of tumor volume: concentration or dose not given beside the values; settings: for Percent inhibition of tumor volume: negative values indicate an increase in tumor volume; for Mean tumor volume: PTC124 20 mg/kg i.p. QD, antibodies 10 mg/kg (anti-CD8 200 ug/mouse) BIW x 3 weeks
Protocol: Animals: Female 6-8 week old (estimated age at inoculation) C57BL/6 mice were obtained from Shanghai Lingchang Bio-Technology Co. Ltd (LC, Shanghai, China). The animals were housed at 20˜26° C. with a 12 hours light and 12 hours darkness cycle.
Cell Culture: MC38 tumor cells were maintained in vitro as a monolayer culture in DMEM medium supplemented with 10% fetal bovine serum at 37° C. in an atmosphere of 5% CO2 in air. The tumor cells were routinely subcultured twice weekly. Cells in an exponential growth phase were harvested and counted for tumor inoculation.
Therapeutic compounds: Ataluren (PTC124) was obtained from Selleck Chemicals (Houston, Tex.). Anti-PD-1 and anti-CTLA-4 antibodies were obtained from BioXCell as was an anti-CD8 antibody.
Tumor Inoculation: Each mouse was inoculated subcutaneously at the right lower flank region with MC38 tumor cells (1×10^6) in 0.1 mL of PBS for tumor development. The treatments were started when the mean tumor size reaches approximately 50 mm^3. The date of tumor cell inoculation was denoted as day 0.
Group assignment: Before grouping and treatment, all animals were weighed and the tumor volumes measured using a caliper. Tumor volume was used as numeric parameter to randomize selected animals into specified groups in order to minimize systematic error. The grouping was performed by using StudyDirector™ software (Studylog Systems, Inc. CA, USA). One optimal randomization design (generated by Matched distribution) showing minimal group to group variation in tumor volume was selected for group allocation.
After tumor cell inoculation, the animals were checked daily for morbidity and mortality as well as any effects of tumor growth and treatments on normal behavior such as mobility, visual estimation of food and water consumption, body weight gain/loss, eye/hair matting and any other abnormal effect. Tumor volumes were measured twice weekly at least in two dimensions using a caliper, and the volume expressed in mm^3 using the formula: V=0.5 a×b^2 where a and b are the long and short diameters of the tumor, respectively.

[1] = test system: CD3+ immune cells infiltrating tumor tissue; assay: Immunohistochemistry of sectioned tumor tissue for immune cell infiltration; type: in vivo, C57BL/6 mice; settings: FIG. 4
Protocol: Immunohistochemistry (IHC): Formalin-fixed paraffin-embedded (FFPE) tissue from tumor samples were sectioned to 4 um. Antigen retrieval (AR) was conducted at 100° C., in EDTA buffer, at pH 9.0 for 20 min. Primary antibody (diluted with validated concentration), RT 60 min+ secondary antibody (ready-to-use), RT 60 min+Bond Polymer Refine Detection.

[2] = test system: intratumoral T-cell infiltrates (CD45+, CD3+, CD8+, and CD4+ cells); assay: FACS analysis for intratumoral T-cell infiltrates; type: in vivo, C57BL/6 mice; settings: FIG. 5
Protocol: FACS analysis: Tumor cells were isolated from each treatment group and FACS analysis performed according to methods which are well known in the art.

[3] = phase-I clinical study in cystic fibrosis; cited from earlier work
normal stop codons = settings: cited from earlier work

O=C(O)c1cccc(-c2noc(-c3ccccc3F)n2)c1 [PTC124, 3-[5-(2-Fluorophenyl)-1,2,4-oxadiazol-3-yl]benzoic acid]
Percent inhibition of tumor volume (MC38 tumor cells; Day 9): −0.96% | Mean tumor volume (MC38 tumor cells; Day 9 after inoculation (randomization)): 52.46 mm^3 | Mean tumor volume (MC38 tumor cells; Day 12): 72.34 mm^3 | Percent inhibition of tumor volume (MC38 tumor cells; Day 12): 13.94% | Mean tumor volume (MC38 tumor cells; Day 15): 128.58 mm^3 | Percent inhibition of tumor volume (MC38 tumor cells; Day 15): 1.20% | Mean tumor volume (MC38 tumor cells; Day 18): 231.26 mm^3 | Percent inhibition of tumor volume (MC38 tumor cells; Day 18): 19.87% | Mean tumor volume (MC38 tumor cells; Day 22): 388.94 mm^3 | Percent inhibition of tumor volume (MC38 tumor cells; Day 22): 18.64% | Mean tumor volume (MC38 tumor cells; Day 25): 617.86 mm^3 | Percent inhibition of tumor volume (MC38 tumor cells; Day 25): 22.82% | Mean tumor volume (MC38 tumor cells; Day 29): 988.37 mm^3 | Percent inhibition of tumor volume (MC38 tumor cells; Day 29): 21.47% | Mean tumor volume (MC38 tumor cells; Day 32): 1459.49 mm^3 | Percent inhibition of tumor volume (MC38 tumor cells; Day 32): 18.16% | Tumor inhibition (in words) (MC38 tumor cells; MC38 tumor-bearing C57BL/6 mice, Table 6, FIGS. 1-3): has tumor inhibition-promoting properties | CD3+ immune cells infiltrating tumor tissue (immunohistochemical analysis) [1]: significant numbers of CD3+ immune cells infiltrating tumor tissue | Intratumoral T-cell infiltrates (CD45+, CD3+, CD8+, and CD4+ cells) by FACS [2]: increased intratumoral T-cell infiltrates | Read-through activity compared with aminoglycosides [3]: more efficient read-through activity than aminoglycosides | Tolerability [3]: generally well tolerated | Ribosomal read-through of normal stop codons (normal stop codons): does not induce ribosomal read-through of normal stop codons
